MIC data for 29 molecules are collected here from ChEMBL document CHEMBL1208682, “New quinoline derivatives: synthesis and investigation of antibacterial and antituberculosis properties” (2010).

Converted amounts (≈) assume the structure as drawn. A value given as a limit tells only on which side of the number the result lay.

For the experiment, the system named is Mycobacterium tuberculosis. The experiment can be described thus: Antituberculosis activity against multi drug-resistant Mycobacterium tuberculosis after 7 days using resazurin dye by broth microdilution assay. Particulars: 168 h. Type of experiment: functional.

As for `Oc1cc(F)ccc1/C=N/Nc1cc(C(F)(F)F)nc2c(C(F)(F)F)cccc12`, the MIC is > 50 µM.

Take `FC(F)C(F)(F)Oc1cccc(/C=N/Nc2cc(C(F)(F)F)nc3c(C(F)(F)F)cccc23)c1`: the MIC came to 25 µM (≈ 12.5 µg/mL).

For `COc1ccc(/C=N/Nc2cc(C(F)(F)F)nc3c(C(F)(F)F)cccc23)cc1O`, the MIC amounted to 12.5 µM (≈ 5.37 µg/mL).

`COc1ccc(/C=N/Nc2cc(C(F)(F)F)nc3c(C(F)(F)F)cccc23)c(F)c1` showed an MIC of 6.25 µM (≈ 2.7 µg/mL).

Consider `FC(F)(F)c1cc(N/N=C/c2cccs2)c2cccc(C(F)(F)F)c2n1`, for which the MIC was > 50 µM.

For the molecule `FC(F)(F)c1cc(N/N=C/c2cccnc2)c2cccc(C(F)(F)F)c2n1`, the minimum inhibitory concentration (MIC) was > 50 µM.

Regarding `FC(F)(F)c1cc(N/N=C/C2CCCCC2)c2cccc(C(F)(F)F)c2n1`, the minimum inhibitory concentration (MIC) was 6.25 µM (≈ 2.43 µg/mL).

On to `FC(F)(F)Oc1cccc(/C=N/Nc2cc(C(F)(F)F)nc3c(C(F)(F)F)cccc23)c1`, for which it took 12.5 µM (≈ 5.84 µg/mL) to inhibit growth (MIC).

`CCCCCCC/C=N/Nc1cc(C(F)(F)F)nc2c(C(F)(F)F)cccc12` registered an MIC of 6.25 µM (≈ 2.53 µg/mL).

Take `FC(F)(F)c1cc(N/N=C/c2cocc2Br)c2cccc(C(F)(F)F)c2n1`: the minimum inhibitory concentration (MIC) is > 50 µM.

In the case of `FC(F)(F)c1cc(N/N=C/c2c[nH]cn2)c2cccc(C(F)(F)F)c2n1`, the MIC came to 6.25 µM (≈ 2.33 µg/mL).

For the molecule `Cn1cc(Cl)c(/C=N/Nc2cc(C(F)(F)F)nc3c(C(F)(F)F)cccc23)n1`, the MIC is 6.25 µM (≈ 2.64 µg/mL).

Molecule `FC(F)(F)c1cc(N/N=C/c2ccc3c(c2)CCO3)c2cccc(C(F)(F)F)c2n1` gave a minimum inhibitory concentration (MIC) of 12.5 µM (≈ 5.32 µg/mL).

As to `Cn1cccc1/C=N/Nc1cc(C(F)(F)F)nc2c(C(F)(F)F)cccc12`, the lowest concentration to inhibit growth (MIC) was 25 µM (≈ 9.66 µg/mL).

`FC(F)(F)c1cc(N/N=C/c2ccc3nonc3c2)c2cccc(C(F)(F)F)c2n1`: inhibition of growth (MIC) required 12.5 µM (≈ 5.32 µg/mL).

Take `Cn1nnc2cc(/C=N/Nc3cc(C(F)(F)F)nc4c(C(F)(F)F)cccc34)ccc21`: the MIC came out at 25 µM (≈ 11 µg/mL).

On to `Cc1cccc2c(/C=N/Nc3cc(C(F)(F)F)nc4c(C(F)(F)F)cccc34)c[nH]c12`, for which inhibition of growth (MIC) required 12.5 µM (≈ 5.45 µg/mL).

For `CC(=O)OCc1ccc(/C=N/Nc2cc(C(F)(F)F)nc3c(C(F)(F)F)cccc23)o1`, the MIC is > 50 µM.

Consider `Cc1nc[nH]c1/C=N/Nc1cc(C(F)(F)F)nc2c(C(F)(F)F)cccc12`, for which it took 6.25 µM (≈ 2.42 µg/mL) to inhibit growth (MIC).

With `COc1ccc2[nH]cc(/C=N/Nc3cc(C(F)(F)F)nc4c(C(F)(F)F)cccc34)c2c1`, the MIC was > 50 µM.

`O=C(NNc1cc(C(F)(F)F)nc2c(C(F)(F)F)cccc12)Nc1ccc(F)cc1` registered an MIC of 12.5 µM (≈ 5.4 µg/mL).

`N#Cc1cccc(NC(=O)NNc2cc(C(F)(F)F)nc3c(C(F)(F)F)cccc23)c1`: the MIC is > 50 µM.

In turn, `COc1ccccc1NC(=O)NNc1cc(C(F)(F)F)nc2c(C(F)(F)F)cccc12` came in with a minimum inhibitory concentration (MIC) of 12.5 µM (≈ 5.55 µg/mL).

`Cc1cc(C)cc(NC(=O)NNc2cc(C(F)(F)F)nc3c(C(F)(F)F)cccc23)c1` returned a minimum inhibitory concentration (MIC) of 6.25 µM (≈ 2.76 µg/mL).

On to `CCCCCNC(=O)NNc1cc(C(F)(F)F)nc2c(C(F)(F)F)cccc12`, for which the MIC was > 50 µM.

Consider `Fc1ccccc1NC(=S)NNc1cc(C(F)(F)F)nc2c(C(F)(F)F)cccc12`, for which the minimum inhibitory concentration (MIC) is > 50 µM.

As to `COCCNC(=S)NNc1cc(C(F)(F)F)nc2c(C(F)(F)F)cccc12`, the minimal inhibitory concentration (MIC) came to 25 µM (≈ 10.3 µg/mL).

Consider `NNC(=O)c1ccncc1` [ISONIAZID], for which the MIC came out at 12.5 µM (≈ 1.71 µg/mL).

As to `CO[C@H]1/C=C/O[C@@]2(C)Oc3c(C)c(O)c4c(O)c(c(/C=N/N5CCN(C)CC5)c(O)c4c3C2=O)NC(=O)/C(C)=C\C=C\[C@H](C)[C@H](O)[C@@H](C)[C@@H](O)[C@@H](C)[C@H](OC(C)=O)[C@@H]1C` [RIFAMPIN], the lowest concentration to inhibit growth (MIC) was 25 µM (≈ 20.6 µg/mL).

One may read the MIC as the least concentration at which growth counts as inhibited. Low readings indicate a more susceptible organism, high ones a less susceptible organism.
